Measured values reported in US9409884B2 (Rigel Pharmaceuticals, Inc., priority 2012, dated 2016).

The compounds below were run against AMPK (assay: AMPK activation, enzyme-linked immunosorbent assay). Settings: Table 8, compounds of Table 1.
Format: biochemical
Outline: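 Read-out: ELISA, used to detect compound-driven activation of AMPK.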

| EC50 [nM] | SMILES |
| --- | --- |
| < 100 | N#Cc1ccccc1CN1CCC(NC(=O)c2cc3ccc(OC4CCN(c5ccc(OC(F)(F)F)cc5)CC4)cc3o2)CC1 [Compound 1-97, N-(1-(2-cyanobenzyl)piperidin-4-yl)-6-(1-(4-(trifluoromethoxy)phenyl)piperidin-4-yloxy)benzofuran-2-carboxamide] |
| 500 to 1000 | O=C(NC1CCN(Cc2ccccn2)CC1)c1cc2ccc(OC3CCN(c4ccc(OC(F)(F)F)cc4)CC3)cc2o1 [Compound 1-92, N-(1-(pyridin-2-ylmethyl)piperidin-4-yl)-6-(1-(4-(trifluoromethoxy)phenyl)piperidin-4-yloxy)benzofuran-2-carboxamide] |
| 1000 to 5000 | FC(F)(F)c1ccc(N2CCC(Oc3ccc4c(c3)CCC4NC3CCNCC3)CC2)cc1 (stereo not shown) [Compound 1-157, N-(5-(1-(4-(trifluoromethyl)phenyl)piperidin-4-yloxy)-2,3-dihydro-1H-inden-1-yl)piperidin-4-amine] |
| 1000 to 5000 | O=C(NC1CCN(Cc2c[nH]cn2)CC1)c1ccc(OC2CCN(c3ccc(C(F)(F)F)cc3)CC2)cn1 [Compound 1-48, N-(1-((1H-imidazol-4-yl)methyl)piperidin-4-yl)-5-(1-(4-(trifluoromethyl)phenyl)piperidin-4-yloxy)picolinamide] |
| < 100 | O=C(NC1CCN(Cc2ccncc2)CC1)c1sc2cc(OC3CCN(c4ccc(C(F)(F)F)cc4)CC3)ccc2c1Cl [Compound 1-151, 3-chloro-N-(1-(pyridin-4-ylmethyl)piperidin-4-yl)-6-(1-(4-(trifluoromethyl)phenyl)piperidin-4-yloxy)benzo[b] thiophene-2-carboxamide] |
| 1000 to 5000 | O=C(NC1CCN(Cc2cn(C(c3ccccc3)(c3ccccc3)c3ccccc3)cn2)CC1)c1ccc(OC2CCN(c3ccc(C(F)(F)F)cc3)CC2)cn1 [Compound 1-47, 5-(1-(4-(trifluoromethyl)phenyl)piperidin-4-yloxy)-N-(1-((1-trityl-1H-imidazol-4-yl)methyl)piperidin-4-yl)picolinamide] |

Same assay, conditions: Table 9, compounds of Table 2

| EC50 [nM] | SMILES |
| --- | --- |
| 10000 to 50000 | CC(C)(C)OC(=O)N1CCC(NC(=O)c2ccc3[nH]c4c(c3c2)CN(c2ccc(F)cc2)CC4)CC1 [Compound 2-38, tert-butyl 4-(2-(4-fluorophenyl)-2,3,4,5-tetrahydro-1H-pyrido[4,3-b]indole-8-carboxamido)piperidine-1-carboxylate] |
| 5000 to 10000 | O=C(NC1CCN(Cc2cccnc2)CC1)c1ccc2[nH]c3c(c2c1)CN(Cc1ccc(F)cc1)CC3 [Compound 2-8, 2-(4-fluorobenzyl)-N-(1-(pyridin-3-ylmethyl)piperidin-4-yl)-2,3,4,5-tetrahydro-1H-pyrido[4,3-b]indole-8-carboxamide] |
| 10000 to 50000 | N#Cc1ccc(CN2CCC(NC(=O)c3ccc4[nH]c5c(c4c3)CN(S(=O)(=O)c3ccc(C#N)cc3)CC5)CC2)cc1 [Compound 2-25, N-(1-(4-cyanobenzyl)piperidin-4-yl)-2-(4-cyanophenylsulfonyl)-2,3,4,5-tetrahydro-1H-pyrido[4,3-b]indole-8-carboxamide] |

Same assay, conditions: Table 10, compounds of Table 3

| EC50 [nM] | SMILES |
| --- | --- |
| 10000 to 100000 | N#Cc1ccc(CN2CCC(NC(=O)c3ccc(C(=O)NC4CCN(Cc5ccccc5)CC4)cc3)CC2)cc1 [Compound 3-33, N^1-(1-benzylpiperidin-4-yl)-N^4-(1-(4-cyanobenzyl)piperidin-4-yl)terephthalamide] |

Same assay, conditions: Table 12, compounds of Table 5

| EC50 [nM] | SMILES |
| --- | --- |
| < 1000 | N#Cc1ccc(CN2CCC(NC(=O)c3cccc(OC4CCN(Cc5ccc(-n6cccn6)cc5)CC4)c3)CC2)cc1 [Compound 5-119, 3-(l-(4-(lH-pyrazol-1-yl)benzyl)piperidin-4-yloxy)-N-(1-(4-cyanobenzyl)piperidin-4-yl)benzamide] |
| < 1000 | COc1ccc(CN2CCC(NC(=O)c3cccc(OC4CCN(Cc5ccc(OC)cc5)CC4)c3)CC2)cc1 [Compound 5-107, N-(1-(4-methoxybenzyl)piperidin-4-yl)-3-(1-(4-methoxybenzyl)piperidin-4-yloxy)benzamide] |

Same assay, conditions: Table 13, compounds of Table 6

| EC50 [nM] | SMILES |
| --- | --- |
| 1000 to 10000 | N#Cc1ccc(CN2CCC(NC(=O)c3cc4cc(NC(=O)C5CCN(Cc6cnn(-c7ccccn7)c6)CC5)ccc4o3)CC2)cc1 [Compound 6-41, N-(2-(1-(4-cyanobenzyl)piperidin-4-ylcarbamoyl)benzofuran-5-yl)-1-((1-(pyridin-2-yl)-1H-pyrazol-4-yl)methyl)piperidine-4-carboxamide] |
| < 100 | N#Cc1ccc(CN2CCC(NC(=O)c3cc4cc(C(=O)N5CCN(Cc6ccc(C(F)(F)F)cc6)CC5)ccc4o3)CC2)cc1 [Compound 6-127, N-(1-(4-cyanobenzyl)piperidin-4-yl)-5-(4-(4-(trifluoromethyl)benzyl)piperazine-1-carbonyl) benzofuran-2-carboxamide] |
| < 100 | N#Cc1ccc(CN2CCC(NC(=O)c3cc4cc(C(=O)N5CCN(c6ccc(Cl)cc6Cl)CC5)ccc4o3)CC2)cc1 [Compound 6-118, N-(1-(4-cyanobenzyl)piperidin-4-yl)-5-(4-(2,4-dichlorophenyl)piperazine-1-carbonyl)benzofuran-2-carboxamide] |
| < 100 | N#Cc1ccc(N2CCC(C(=O)Nc3ccc4oc(C(=O)N5CCC(Oc6ccc(C(F)(F)F)cc6)CC5)cc4c3)CC2)cc1 [Compound 6-22, 1-(4-cyanophenyl)-N-(2-(4-(4-(trifluoromethyl)phenoxy)piperidine-1-carbonyl)benzofuran-5-yl)piperidine-4-carboxamide] |
| < 100 | CC(C)S(=O)(=O)c1ccc(N2CCN(C(=O)c3ccc4oc(C(=O)NC5CCN(Cc6ccc(C#N)cc6)CC5)cc4c3)CC2)cc1 [Compound 6-108, N-(1-(4-cyanobenzyl)piperidin-4-yl)-5-(4-(4-(isopropylsulfonyl)phenyl)piperazine-1-carbonyl) benzofuran-2-carboxamide] |
| 100 to 1000 | N#Cc1ccc(CN2CCC(NC(=O)c3cc4cc(C(=O)NC5CCN(Cc6ccc(OC(F)(F)F)cc6)CC5)ccc4o3)CC2)cc1 [Compound 6-93, N2-(1-(4-cyanobcnzyl)piperidin-4-yl)-N5-(1-(4-(trifluoromethoxy)benzyl)piperidin-4-yl)benzofuran-2,5-dicarboxamide] |

Same assay, conditions: Table 14, compounds of Table 7

| EC50 [nM] | SMILES |
| --- | --- |
| < 1000 | COc1ccc(CN2CCC(NC(=O)c3ccc(C(=O)N4CCC(C(=O)c5ccc(OC)cc5)CC4)nc3)[C@@H](C(F)(F)F)C2)cc1 (stereo partly drawn) [Compound 7-102, 6-(4-(4-methoxybenzoyl)piperidine-1-carbonyl)-N-((3,4-cis)-1-(4-methoxybenzyl)-3 - (trifluoromethyl)piperidin-4-yl)nicotinamide] |
| < 1000 | COc1ccc(C(=O)C2CCN(C(=O)c3ccc(C(=O)NC4CCN(Cc5ccc(OC)c(F)c5)C[C@@H]4C)cn3)CC2)cc1 (stereo partly drawn) [Compound 7-96, N-((3,4-cis)-1-(3-fluoro-4-methoxybenzyl)-3-methylpiperidin-4-yl)-6-(4-(4-methoxybenzoyl)piperidine-1-carbonyl)nicotinamide] |
| < 1000 | COc1ccc(C(=O)C2CCN(C(=O)c3ccc(C(=O)NC4CCN(Cc5ccc(OC(F)(F)F)cc5)C[C@H]4F)cn3)CC2)cc1 (stereo partly drawn) [Compound 7-33, (3,4-trans)-3-fluoro-4-(6-(4-(4-methoxybenzoyl)piperidine-1-carbonyl)nicotinamido)-1-(4-(trifluoromethoxy)benzyl) piperidinium] |
| < 1000 | CC(=O)c1ccc(Oc2ccc(NC(=O)c3ccc(C(=O)N4CCC(Oc5ccc6sc(C)nc6c5)CC4)nc3)cn2)cc1 [Compound 7-20, N-(6-(4-acetylphenoxy)pyridin-3-yl)-6-(4-(2-methylbenzo[d]thiazol-5-yloxy)piperidine-1-carbonyl)nicotinamide] |
